Experimental data reported in ChEMBL document CHEMBL3865786, “Scaffold-hopping of bioactive flavonoids: Discovery of aryl-pyridopyrimidinones as potent anticancer agents that inhibit catalytic role of topoisomerase IIα” (Eur J Med Chem, 2016).
pIC50: −log10 of the molar value. The source made the active and inactive calls. No cut-off for these calls is given here.

How the values were obtained:
[1] = Cytotoxicity against human HeLa cells assessed as reduction in cell viability after 48 hrs by MTT assay; format: functional, cell-based
HEK293 [2] = assay: Induction of apoptosis in HEK293 cells assessed as early apoptotic cells at 1 uM after 48 hrs by Annexin-V/FITC/PI dual staining based flow cytometry (reference value: 0.19 +/- 1.4%); format: functional, Homo sapiens
[3] = Cytotoxicity against human H357 cells assessed as reduction in cell viability after 48 hrs by MTT assay; format: functional, cell-based; settings: H357, 48 h
HEK293 [4] = assay: (§1) Cytotoxicity against HEK293 cells assessed as reduction in cell viability after 48 hrs by MTT assay; format: functional; settings: Homo sapiens
[5] = as §1; format: functional; settings: Homo sapiens, HEK293, 48 h; read-out: LC50 (the source's name)
HEK293 [6] = assay: Induction of apoptosis in HEK293 cells assessed as late apoptotic cells at 5 uM after 48 hrs by Annexin-V/FITC/PI dual staining based flow cytometry (reference value: 0.82 +/- 0.5%); format: functional, Homo sapiens
HEK293 [7] = assay: Induction of apoptosis in HEK293 cells assessed as late apoptotic cells at 2.4 uM after 48 hrs by Annexin-V/FITC/PI dual staining based flow cytometry (reference value: 0.82 +/- 0.5%); format: functional, Homo sapiens
HEK293 [8] = assay: Induction of apoptosis in HEK293 cells assessed as apoptotic cells at 5 uM after 48 hrs by Annexin-V/FITC/PI dual staining based flow cytometry (reference value: 0.07 +/- 0.2%); format: functional, Homo sapiens
[9] = Cytotoxicity against human HCT116 cells assessed as reduction in cell viability after 48 hrs by MTT assay; format: functional, cell-based; settings: HCT-116, 48 h
HEK293 [10] = assay: Induction of apoptosis in HEK293 cells assessed as shrinkage after 48 hrs by DAPI staining based fluorescence microscopy; format: functional, cell-based; settings: Homo sapiens
HEK293 [11] = assay: Potency index, ratio of etoposide LC50 to compound LC50 for anticlonogenic activity in HEK293 cells; format: functional, Homo sapiens
HEK293 [12] = assay: Induction of apoptosis in HEK293 cells assessed as normal cells at 1 uM after 48 hrs by Annexin-V/FITC/PI dual staining based flow cytometry (reference value: 98.2 +/- 1.7%); format: functional, Homo sapiens
HEK293 [13] = assay: Induction of apoptosis in HEK293 cells assessed as normal cells at 2.4 uM after 48 hrs by Annexin-V/FITC/PI dual staining based flow cytometry (reference value: 98.2 +/- 1.7%); format: functional, Homo sapiens
HEK293 [14] = assay: Induction of apoptosis in HEK293 cells assessed as late apoptotic cells at 1 uM after 48 hrs by Annexin-V/FITC/PI dual staining based flow cytometry (reference value: 0.82 +/- 0.5%); format: functional, Homo sapiens
HEK293 [15] = assay: Induction of apoptosis in HEK293 cells assessed as bubble shaped nuclei after 48 hrs by DAPI staining based fluorescence microscopy; format: functional, cell-based; settings: Homo sapiens
[16] = target: DNA topoisomerase 2-alpha (Homo sapiens) (UniProt P11388); assay: Inhibition of human DNA topoisomerase 2alpha-mediated decatenation of kinetoplast DNA at 100 uM after 30 mins by agarose gel electrophoresis
Chain of DNA topoisomerase 2-alpha (Homo sapiens) (P11388 whole entry): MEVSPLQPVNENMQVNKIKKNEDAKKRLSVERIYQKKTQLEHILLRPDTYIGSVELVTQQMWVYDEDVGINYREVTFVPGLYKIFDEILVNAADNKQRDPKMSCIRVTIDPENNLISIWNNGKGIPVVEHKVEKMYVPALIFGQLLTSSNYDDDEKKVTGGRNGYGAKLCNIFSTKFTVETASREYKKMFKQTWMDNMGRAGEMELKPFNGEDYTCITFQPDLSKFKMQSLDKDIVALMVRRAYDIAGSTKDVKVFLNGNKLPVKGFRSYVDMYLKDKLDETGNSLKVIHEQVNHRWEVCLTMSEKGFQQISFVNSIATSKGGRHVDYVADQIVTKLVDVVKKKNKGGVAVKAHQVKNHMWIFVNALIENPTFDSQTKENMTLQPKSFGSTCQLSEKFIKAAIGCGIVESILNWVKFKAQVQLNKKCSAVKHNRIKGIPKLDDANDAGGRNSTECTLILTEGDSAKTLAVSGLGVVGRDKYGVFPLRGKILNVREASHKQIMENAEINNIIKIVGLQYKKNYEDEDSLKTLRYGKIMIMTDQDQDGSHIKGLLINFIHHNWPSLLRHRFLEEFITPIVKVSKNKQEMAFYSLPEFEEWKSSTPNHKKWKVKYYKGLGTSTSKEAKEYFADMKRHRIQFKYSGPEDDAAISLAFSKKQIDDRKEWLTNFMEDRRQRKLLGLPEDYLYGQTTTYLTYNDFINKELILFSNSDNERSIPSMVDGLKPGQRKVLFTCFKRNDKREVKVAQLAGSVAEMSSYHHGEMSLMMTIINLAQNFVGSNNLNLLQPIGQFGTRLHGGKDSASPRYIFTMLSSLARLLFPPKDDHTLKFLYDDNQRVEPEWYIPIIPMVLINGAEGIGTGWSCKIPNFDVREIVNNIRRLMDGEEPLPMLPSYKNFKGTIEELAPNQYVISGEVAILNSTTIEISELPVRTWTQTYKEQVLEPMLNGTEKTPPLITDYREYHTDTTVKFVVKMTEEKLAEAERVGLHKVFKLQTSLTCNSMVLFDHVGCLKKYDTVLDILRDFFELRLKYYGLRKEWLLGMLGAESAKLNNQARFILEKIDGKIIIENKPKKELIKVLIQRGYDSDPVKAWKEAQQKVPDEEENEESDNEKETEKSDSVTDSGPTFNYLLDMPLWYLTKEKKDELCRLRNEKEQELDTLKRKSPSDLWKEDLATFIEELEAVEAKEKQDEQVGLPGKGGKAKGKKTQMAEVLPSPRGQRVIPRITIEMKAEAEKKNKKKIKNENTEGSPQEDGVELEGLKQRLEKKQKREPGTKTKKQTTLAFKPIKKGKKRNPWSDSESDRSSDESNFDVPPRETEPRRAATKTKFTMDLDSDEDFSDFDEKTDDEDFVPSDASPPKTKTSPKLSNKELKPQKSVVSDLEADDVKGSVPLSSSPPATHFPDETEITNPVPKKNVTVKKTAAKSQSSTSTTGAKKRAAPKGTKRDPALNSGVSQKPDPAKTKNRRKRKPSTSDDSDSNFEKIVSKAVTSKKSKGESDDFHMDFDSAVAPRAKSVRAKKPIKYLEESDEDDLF

HEK293 [17] = assay: (§2) Anticlonogenic activity against HEK293 cells assessed as inhibition of colony formation incubated for 48 hrs measured after 6 days by crystal violet staining based assay; format: functional; settings: Homo sapiens
[18] = as §2; format: functional; settings: Homo sapiens, read-out: LC50 (the source's name)
HEK293 [19] = assay: Induction of apoptosis in HEK293 cells assessed as apoptotic cells at 1 uM after 48 hrs by Annexin-V/FITC/PI dual staining based flow cytometry (reference value: 0.07 +/- 0.2%); format: functional, Homo sapiens
[20] = Binding affinity to DNA (unknown origin) assessed as hypochromism after 1 hr by UV-Vis absorption spectrophotometric analysis
HEK293 [21] = assay: Induction of apoptosis in HEK293 cells after 48 hrs by Annexin V-FITC/propidium iodide staining based flow cytometry; format: functional, cell-based; settings: Homo sapiens
HEK293 [22] = assay: Induction of apoptosis in HEK293 cells assessed as deformation after 48 hrs by DAPI staining based fluorescence microscopy; format: functional, cell-based; settings: Homo sapiens
HEK293 [23] = assay: Induction of apoptosis in HEK293 cells assessed as early apoptotic cells at 5 uM after 48 hrs by Annexin-V/FITC/PI dual staining based flow cytometry (reference value: 0.19 +/- 1.4%); format: functional, Homo sapiens
HEK293 [24] = assay: Induction of apoptosis in HEK293 cells assessed as apoptotic cells at 2.4 uM after 48 hrs by Annexin-V/FITC/PI dual staining based flow cytometry (reference value: 0.07 +/- 0.2%); format: functional, Homo sapiens
HEK293 [25] = assay: Induction of apoptosis in HEK293 cells assessed as normal cells at 5 uM after 48 hrs by Annexin-V/FITC/PI dual staining based flow cytometry (reference value: 98.2 +/- 1.7%); format: functional, Homo sapiens
[26] = Cytotoxicity against human MCF7 cells assessed as reduction in cell viability after 48 hrs by MTT assay; format: functional, cell-based; settings: MCF7, 48 h
[27] = Cytotoxicity against human A549 cells assessed as reduction in cell viability after 48 hrs by MTT assay; format: functional, cell-based; settings: A549, 48 h
HEK293 [28] = assay: Induction of apoptosis in HEK293 cells assessed as early apoptotic cells at 2.4 uM after 48 hrs by Annexin-V/FITC/PI dual staining based flow cytometry (reference value: 0.19 +/- 1.4%); format: functional, Homo sapiens
[29] = Cytotoxicity against African green monkey Vero cells assessed as reduction in cell viability after 48 hrs by MTT assay; format: toxicity, cell-based; settings: chlorocebus sabaeus

## O=c1cc(-c2ccc(Cl)cc2)nc2ccccn12
[1]
  pIC50: 5.70
HEK293 [2]
  Activity: 0.02%
[3]
  pIC50: 5.64
HEK293 [4]
  Activity: Dose-dependent effect
[5]
  CC50: 2.4 µM
HEK293 [6]
  Activity: 18.56%
HEK293 [7]
  Activity: 12.8%
HEK293 [8]
  Activity: 3.41%
[9]
  pIC50: 5.60
HEK293 [10]
  Activity: Dose-dependent effect
HEK293 [11]
  RatioLC50: 5 - 10
HEK293 [12]
  Activity: 88.48%
HEK293 [13]
  Activity: 87%
HEK293 [14]
  Activity: 10.83%
HEK293 [15]
  Activity: Dose-dependent effect
[16]
  Topoisomerase 2-alpha inhibition (active/inactive): Active
HEK293 [17]
  inhibition: Dose-dependent effect
[18]
  CC50: 2 µM
HEK293 [19]
  Activity: 0.66%
[20]
  Activity: Active
HEK293 [21]
  Activity: Dose-dependent effect
HEK293 [22]
  Activity: Dose-dependent effect
HEK293 [23]
  Activity: 0.42%
HEK293 [24]
  Activity: 0.2%
HEK293 [25]
  Activity: 77.6%
[26]
  pIC50: 5.74
[27]
  pIC50: 5.68
HEK293 [28]
  Activity: 0%
[29]; Vero cells, read-out: LC50
  CC50 at 48 h: 47.5 µM
[29]; vero, 48 h
  Activity: Dose-dependent effect
